This is an account of results in the NIST ThermoML archive (doi:10.1007/s10765-009-0593-3).

± gives the expanded uncertainty stated by the source.

For this data set the following is noted: 101.33 kPa, Liquid; for speed of sound: Pulse-echo method.

`CCCCNCCCC` [dibutylamine]: the mass density is on record as 766.115 ± 0.53 kg/m3 (288.15 K); 762.022 ± 0.53 kg/m3 (293.15 K); 757.784 ± 0.54 kg/m3 (298.15 K); 752.284 ± 0.55 kg/m3 (303.15 K); 748.17 ± 0.55 kg/m3 (308.15 K). For the same compound, the speed of sound stood at 1289.2 ± 0.83 m/s (288.15 K); 1269.5 ± 0.82 m/s (293.15 K); 1246.7 ± 0.81 m/s (298.15 K); 1226.7 ± 0.81 m/s (303.15 K); 1207 ± 0.8 m/s (308.15 K).

In the case of `CCCOCC(C)OCC(C)O` (stereo not given) [1-(1-methyl-2-propoxyethoxy)-2-propanol], the mass density reads like this: (288.15 K) 924.348 ± 0.29 kg/m3; (293.15 K) 919.954 ± 0.29 kg/m3; (298.15 K) 915.522 ± 0.3 kg/m3; (303.15 K) 911.078 ± 0.31 kg/m3; (308.15 K) 906.642 ± 0.31 kg/m3. For the same compound, the speed of sound (288.15 K) was found to be 1306.3 ± 0.83 m/s; the speed of sound (293.15 K) was 1287.9 ± 0.83 m/s; the speed of sound (298.15 K) was 1269.9 ± 0.82 m/s; the speed of sound (303.15 K) turned out to be 1251.7 ± 0.82 m/s; the speed of sound (308.15 K) amounted to 1234.1 ± 0.81 m/s.

Consider `CCCCN(CCCC)CCCC` [tributylamine], for which the mass density came out at 781.336 ± 0.5 kg/m3 (288.15 K); 777.632 ± 0.51 kg/m3 (293.15 K); 773.913 ± 0.51 kg/m3 (298.15 K); 770.183 ± 0.52 kg/m3 (303.15 K); 766.44 ± 0.53 kg/m3 (308.15 K). The speed of sound (288.15 K) amounted to 1285 ± 0.83 m/s; the speed of sound (293.15 K) is 1266.4 ± 0.82 m/s; the speed of sound (298.15 K) is on record as 1247.6 ± 0.81 m/s; the speed of sound (303.15 K) was 1229 ± 0.81 m/s; the speed of sound (308.15 K) amounted to 1210.4 ± 0.8 m/s.

With `CCCCN` [1-butanamine], the mass density is 742.865 ± 0.56 kg/m3 (288.15 K); 738.096 ± 0.57 kg/m3 (293.15 K); 733.301 ± 0.58 kg/m3 (298.15 K); 728.477 ± 0.58 kg/m3 (303.15 K); 723.625 ± 0.59 kg/m3 (308.15 K). Moreover, the speed of sound reads like this: (288.15 K) 1296.1 ± 0.83 m/s; (293.15 K) 1273.6 ± 0.82 m/s; (298.15 K) 1250 ± 0.82 m/s; (303.15 K) 1228.9 ± 0.81 m/s; (308.15 K) 1205.7 ± 0.8 m/s.

For orientation: mass density means the mass of a sample divided by its volume. In general, speed of sound refers to the propagation velocity of pressure waves in the medium.
